The text below walks through data of ChEMBL document CHEMBL1201862, “PubChem BioAssay data set” (2004).

Among the test systems are HOP-92; K562; SK-MEL-2; CCRF-CEM; SF-268; Hs-578T; COLO 205; OVCAR-8; NCI-H23; IGROV-1; HL-60; HCT-116; SR; MDA-MB-435; RXF 393; HCT-15; PC-3; NCI/ADR-RES; A498; MDA-MB-231.
Holding throughout (assay): inhibition of tumour cell growth, NCI panel, 48 h

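Interpolation was linear, between the two tested concentrations surrounding the appropriate level; five concentrations were tested over 48 hours in 96-well plates. GI50: concentration for 50% inhibition of growth.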 The source made the active and inactive calls. No stated cut-off is given here; in the data, active = GI50 up to about 1.1 µM and inactive = higher.

As to `CC(=O)OCC1OC(N2C(C)=C(C(C)=O)C(c3ccco3)C(C#N)=C2S)C(OC(C)=O)C(OC(C)=O)C1OC(C)=O` (stereo not given), the GI50 with HOP-92, with K562, in the assay on SK-MEL-2, in the assay on CCRF-CEM, with SF-268 and with Hs-578T was > 100 µM (inactive) in each case. The GI50 with COLO 205, with OVCAR-8, in the assay with NCI-H23, in the assay with IGROV-1, with HL-60 and in the assay with HCT-116 was > 100 µM (inactive) each time. The GI50 in the assay on SR is 95.3 µM (inactive); in the assay with MDA-MB-435 it was > 100 µM (inactive); in the assay with RXF 393, > 100 µM (inactive); in the assay on HCT-15, over 100 µM; in the assay on PC-3 it was > 100 µM (inactive); in the assay on NCI/ADR-RES, > 100 µM (inactive). The GI50 with A498 and in the assay with MDA-MB-231 was > 100 µM (inactive) in each case.

Turning to `COC(=O)C1Cc2ccc(O)c(O)c2CN1` (stereo not given), the GI50 in the assay with HOP-92 is 26.4 µM (inactive); in the assay with K562, 28.8 µM (inactive); in the assay with SK-MEL-2, 16.7 µM (inactive); in the assay with CCRF-CEM, 35 µM (inactive); in the assay with SF-268, > 10 µM (inactive); in the assay with Hs-578T it was 25.4 µM (inactive). The GI50 in the assay with COLO 205 was > 100 µM (inactive); with OVCAR-8 it was > 10 µM (inactive); with NCI-H23, 16.6 µM (inactive); with IGROV-1 it was 35.8 µM (inactive); in the assay with HL-60 it was 25.8 µM (inactive); in the assay on HCT-116, 23.7 µM (inactive). In addition, the GI50 in the assay on SR is 29.1 µM (inactive); in the assay with MDA-MB-435, 16.7 µM (inactive); with RXF 393, > 100 µM (inactive); in the assay with HCT-15, 29.7 µM; in the assay on PC-3, 26.1 µM (inactive); with NCI/ADR-RES it was 22.1 µM (inactive). Further, the GI50 was > 100 µM (inactive) in the assay with A498 and 19.8 µM (inactive) in the assay on MDA-MB-231.

As for `O=c1cc(O)c2c(O)cc(O)cc2o1`, the GI50 in the assay on HOP-92, in the assay with K562, in the assay on SK-MEL-2, in the assay on CCRF-CEM, with SF-268 and in the assay with Hs-578T was > 100 µM (inactive) in each case. For the same compound, the GI50 in the assay with COLO 205, in the assay on OVCAR-8, with NCI-H23, in the assay with IGROV-1, in the assay on HL-60 and with HCT-116 was > 100 µM (inactive) each time. Moreover, the GI50 is > 100 µM (inactive) with SR; > 100 µM (inactive) in the assay on MDA-MB-435; > 100 µM (inactive) in the assay with RXF 393; over 100 µM in the assay with HCT-15; > 100 µM (inactive) with PC-3; > 100 µM (inactive) in the assay on NCI/ADR-RES. In addition, the GI50 with A498 and with MDA-MB-231 was > 100 µM (inactive) each time.

In the case of `C/C(=N\N)C(CN(C)C)C(c1ccccc1)c1c(O)c2ccccc2oc1=O` (stereo not given), the GI50 was 25.2 µM (inactive) with HOP-92; > 60 µM (inactive) in the assay with K562; > 100 µM (inactive) in the assay on SK-MEL-2; > 27 µM (inactive) with CCRF-CEM; > 100 µM (inactive) in the assay on SF-268; > 100 µM (inactive) in the assay on Hs-578T. Moreover, the GI50 in the assay with COLO 205 was > 100 µM (inactive); in the assay on OVCAR-8 it was > 100 µM (inactive); with NCI-H23, > 100 µM (inactive); in the assay on IGROV-1 it was > 100 µM (inactive); with HL-60, > 26.7 µM (inactive); with HCT-116, > 80 µM (inactive). Further, the GI50 is > 67.1 µM (inactive) in the assay with SR; > 100 µM (inactive) in the assay with MDA-MB-435; > 55.6 µM (inactive) in the assay on RXF 393; over 100 µM in the assay with HCT-15; > 100 µM (inactive) in the assay with PC-3; > 100 µM (inactive) in the assay on NCI/ADR-RES. In addition, the GI50 with A498 and in the assay with MDA-MB-231 was > 100 µM (inactive) in each case.
